Read-outs that look alike come from different tables or passages of the source.
Experiments:
[1] = Oral administration of Compound PC-5 co-dosed with trypsin inhibitor Compound 109 to rats; type: in vivo; details: rat PO; PC-5 6 mg/kg with Compound 109 0.1 to 10 mg/kg
[2] = Oral administration of Compound PC-6 co-dosed with trypsin inhibitor Compound 109 to rats; type: in vivo; details: rat PO; PC-6 6 mg/kg with Compound 109 0.01 to 30 mg/kg
[3] = Oral administration of Compound KC-2 and trypsin inhibitor Compound 109 to rats; type: in vivo; details: rat PO; KC-2 6 mg/kg with Compound 109 30 mg/kg
[4] = Oral administration of Compound KC-2 co-dosed with increasing Compound 109 to rats; type: in vivo; details: rat PO; KC-2 50 mg/kg with Compound 109 10 to 40 mg/kg
[5] = Oral administration of Compound KC-3 and trypsin inhibitor Compound 109 to rats; type: in vivo; details: rat PO; KC-3 50 mg/kg with Compound 109 10 to 40 mg/kg
[6] = Oral administration of Compound KC-4 and trypsin inhibitor Compound 109 to rats; type: in vivo; details: rat PO; KC-4 6 mg/kg with Compound 109 30 mg/kg
[7] = Pharmacokinetics of oxycodone prodrug Compound KC-2 or oxycodone following PO administration to rats; type: in vivo; details: rat PO; Compound KC-2 20 mg/kg vs oxycodone 10 mg/kg
[8] = In vitro stability of Compound KC-2 to household chemicals and enzyme preparations; type: physicochemical; details: vodka, baking soda, WINDEX, vinegar at RT or 80° C.; GNC Super Digestive, tenderizer, subtilisn at RT; 1 or 24 hr
Method: Samples were incubated as described and aliquots removed at 1 hr and 24 hr and stabilized by adding each to a solution of 50% or 100% of 85% phosphoric acid solution to achieve a final pH of less than or equal to pH 4. The stabilized aliquots were then diluted 4- to 6-fold with water, vortex-mixed and applied to HPLC.

[9] = male, Sprague Dawley, rat, in vivo
[10] = biological target: T1, trypsin from bovine pancreas (Bos taurus, UniProt P00760); experiment: Effect of trypsin inhibition on in vitro trypsin-mediated release of oxycodone from Compound KC-2; type: biochemical; set-up: trypsin from bovine pancreas; purchased Sigma-Aldrich T8003; host or cells: bovine pancreas (tissue-derived); details: no trypsin inhibitor; 0.761 mM Compound KC-2, 0.0228 mg/mL trypsin, 37° C.
T1 sequence (P00760 24-246): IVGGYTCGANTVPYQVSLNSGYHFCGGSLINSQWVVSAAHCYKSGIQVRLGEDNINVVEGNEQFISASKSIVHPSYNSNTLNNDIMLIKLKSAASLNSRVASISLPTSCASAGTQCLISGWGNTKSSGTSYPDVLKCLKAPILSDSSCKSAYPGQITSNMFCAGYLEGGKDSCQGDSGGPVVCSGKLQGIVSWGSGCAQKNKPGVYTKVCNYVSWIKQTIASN

[11] = In vivo tolerability of Compound KC-3 in rats (IV); details: rat IV
Method: Male naïve Sprague-Dawley rats, 4 per dose, were used in the study. Rats were weighed, and then placed under a heat lamp for 15-20 minutes to dilate the lateral tail veins. […] Before dosing, rats were placed in Broome restrainers and the drug was introduced into one of the tail veins using a syringe and needle. […] Blood samples were collected 5 minutes post-dose via the saphenous vein. The rats were observed up to 24 hours.

[12] = In vitro stability of Compound KC-3 to household chemicals and enzyme preparations; type: physicochemical; details: vodka, baking soda, WINDEX, vinegar at RT or 80° C.; GNC Super Digestive, tenderizer, subtilisn at RT; 1 or 24 hr
Method: Samples were incubated as described. Aliquots were removed at 1 hr and 24 hr and stabilized by adding each to a solution of 50% or 100% of 85% phosphoric acid solution to achieve a final pH of less than or equal to pH 4. The stabilized aliquots were then diluted 4- to 6-fold with water, vortex-mixed and applied to HPLC.

[13] = male, Sprague Dawley, rat, in vivo; remark: listed apart in the source
[14] = biological target: T1, trypsin from bovine pancreas; experiment: In vitro trypsin conversion of ketone-modified opioid prodrugs to oxycodone or hydrocodone and inhibition by Compound 109; type: biochemical; set-up: trypsin from bovine pancreas; purchased Sigma-Aldrich T8003; host or cells: bovine pancreas (tissue-derived); details: 0.761 mM prodrug, no inhibitor, 37° C.
human μ-opioid receptor = biological target: T2, human μ-opioid receptor (Homo sapiens, UniProt P35372); type: cell-based; details: EC50 at the human μ-opioid receptor, oxycodone or hydrocodone to the prodrug of that drug, same experiment
T2 construct: expressed in transfected cells; host or cells: CHO

[15] = Pharmacokinetics of Compound KC-4 following PO administration to rats; type: in vivo; details: rat PO; KC-4 6 mg/kg
[16] = Pharmacokinetics of Compound KC-4 following IV administration to rats; type: in vivo; details: KC-4 2 mg/kg ([…])
[17] = Pharmacokinetics of Compound KC-5 following PO administration to rats; type: in vivo; details: rat PO
[18] = Pharmacokinetics of Compound KC-6 following PO administration to rats; type: in vivo; details: rat PO
[19] = male, Sprague Dawley, rat, in vivo; remark: listed apart in the source
[20] = male, Sprague Dawley, rat, in vivo

T2 sequence (P35372 whole entry): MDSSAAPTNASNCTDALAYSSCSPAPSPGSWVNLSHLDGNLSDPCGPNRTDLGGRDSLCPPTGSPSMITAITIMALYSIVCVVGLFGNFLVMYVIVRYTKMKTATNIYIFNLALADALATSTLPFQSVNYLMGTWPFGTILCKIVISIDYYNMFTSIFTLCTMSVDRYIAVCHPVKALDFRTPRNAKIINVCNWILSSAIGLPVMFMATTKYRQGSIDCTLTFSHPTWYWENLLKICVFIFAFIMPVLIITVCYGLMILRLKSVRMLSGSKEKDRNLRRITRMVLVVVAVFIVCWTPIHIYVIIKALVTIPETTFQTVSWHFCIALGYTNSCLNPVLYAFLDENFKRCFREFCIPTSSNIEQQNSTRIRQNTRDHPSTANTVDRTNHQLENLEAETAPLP

N=C(N)c1ccc2cc(OC(=O)c3ccc(N=C(N)N)cc3)ccc2c1 [Compound 109, 6-carbamimidoylnaphthalen-2-yl 4-(diaminomethyleneamino)benzoate]
effect of Compound 109 on release of hydromorphone from Compound PC-5 [1]: ability to attenuate Compound PC-5's ability to release hydromorphone in a dose dependent manner | effect of Compound 109 on release of hydromorphone from Compound PC-6 [2]: ability to attenuate Compound PC-6's ability to release hydromorphone in a dose dependent manner | effect of Compound 109 on release of oxycodone from Compound KC-2 [3]: attenuates Compound KC-2's ability to release oxycodone, both by suppressing Cmax and by delaying Tmax | effect of Compound 109 on release of oxycodone from Compound KC-2 [4]: ability to attenuate Compound KC-2's ability to release oxycodone in a dose dependent manner | effect of Compound 109 on release of oxycodone from Compound KC-3 [5]: attenuates Compound KC-3's ability to release oxycodone, both by suppressing Cmax and AUC and by delaying Tmax | effect of Compound 109 on release of hydrocodone from Compound KC-4 [6]: attenuates Compound KC-4's ability to release hydrocodone, both by suppressing Cmax and AUC and by delaying Tmax

COc1ccc2c3c1O[C@H]1C(OC(=O)N(C)CCNC(=O)[C@H](CCCNC(=N)N)NC(C)=O)=CC[C@@]4(O)[C@@H](C2)N(C)CC[C@]314 [Compound KC-2, Oxycodone 6-(N-methyl-N-(2-N′-acetylarginylamino)) ethylcarbamate]
oxycodone plasma profile compared to administration of oxycodone [7]: yields oxycodone plasma concentrations that exhibit a suppressed Cmax and delayed Tmax compared to administration of oxycodone | conversion of Compound KC-2 to oxycodone on exposure to household chemicals and enzyme preparations [8]: less than 10% | Plasma/CSF partitioning coefficient [9]: 439 | Rate of oxycodone formation, umols/h/umol trypsin Average ± sd [10]: 37.4 ± 0.9 umols/h/umol trypsin

COc1ccc2c3c1O[C@H]1C(OC(=O)N(C)CCNC(=O)[C@H](CCCNC(=N)N)NC(=O)CC(=O)O)=CC[C@@]4(O)[C@@H](C2)N(C)CC[C@]314 [Compound KC-3, N-{(S)-4-guanidino-1-[2-(methyl-[(5R,9R,13S,14S)-4,5a-epoxy-6,7-didehydro-14-hydroxy-3-methoxy-17-methylmorphinan-6-oxy]carbonyl-amino)-ethylcarbamoyl]-butyl}-malonamic acid]
dose tolerated by rats [11]: 97 µmol/kg | time to recover to normal activity ([11]; KC-3 97 μmol/kg): ≤ 2 min | conversion of Compound KC-3 to oxycodone on exposure to household chemicals and enzyme preparations [12]: less than 10% | Compound conc. in CSF [13]: 34.1 ng/mL | Compound conc. in Plasma, ng/mL [13]: 59,225 ng/mL | Plasma/CSF partitioning coefficient [13]: 1,737 | Rate of oxycodone formation, umol/h/BAEE U Average ± sd ([14]; 241 BAEE U trypsin/mL): 0.0684 ± 0.0009 umol/h/BAEE U

COc1ccc2c3c1OC1C(OC(=O)N(C)CCNC(=O)[C@H](CCCNC(=N)N)NC(=O)CC(=O)O)=CCC4[C@@H](C2)N(C)CC[C@]314 (stereo partly drawn) [Compound KC-4, N—((S)-1-{2-[(Dihydrocodein-6-enyloxycarbonyl)-methylamino]-ethylcarbamoyl-4-guanidino}-butyl)-malonamic acid]
Drug/prodrug relative potency (human μ-opioid receptor): 15 | release of hydrocodone after oral administration [15]: leads to release of hydrocodone | KC-4 Cmax (rat plasma) [16]: 3960 ± 570 ng/mL | Rate of hydrocodone formation, umol/h/BAEE U Average ± sd ([14]; 241 BAEE U trypsin/mL): 0.0911 ± 0.015 umol/h/BAEE U | Rate of hydrocodone formation, umol/h/BAEE U Average ± sd ([14]; 4815 BAEE U trypsin/mL): 0.0137 ± 0.0014 umol/h/BAEE U

COc1ccc2c3c1O[C@H]1C(OC(=O)N(CCCCCC(=O)O)CCNC(=O)[C@H](CCCNC(=N)N)NC(C)=O)=CC[C@@]4(O)[C@@H](C2)N(C)CC[C@]314 [Compound KC-5, 6-{[2-(2-Acetylamino-5-guanidino-pentanoylamino)-ethyl]-[(5R, 9R,13S,14S)-4,5a-epoxy-6,7-didehydro-14-hydroxy-3-methoxy-17-methylmorphinan-6-oxy]-1-enyloxycarbonyl-amino}-hexanoic acid]
oxycodone plasma profile compared to administration of oxycodone [17]: yields oxycodone plasma concentrations that exhibit a suppressed Cmax and AUC and delayed Tmax compared to administration of oxycodone | expected fold less effective at CNS mu-opioid receptors than oxycodone (administered intravenously in equimolar amounts, 316×50): about 15,800 fold | Compound conc. in CSF [20]: 36.4 ng/mL | Compound conc. in Plasma [20]: 54,900 ng/mL | Plasma/CSF partitioning coefficient [20]: 1,508 | relative plasma/CSF partitioning coefficient of prodrug to oxycodone (fold less CSF penetrant than oxycodone) (rat IV, 1,508/4.8): about 316 fold | Rate of oxycodone formation, umol/h/BAEE U Average ± sd ([14]; 241 BAEE U trypsin/mL): 0.135 ± 0.005 umol/h/BAEE U

COc1ccc2c3c1O[C@H]1C(OC(=O)N(C)C[C@H](NC(=O)[C@H](CCCNC(=N)N)NC(C)=O)C(=O)N(C)CC(=O)O)=CC[C@@]4(O)[C@@H](C2)N(C)CC[C@]314 [Compound KC-6, ({(S)-2-((S)-2-Acetylamino-5-guanidino-pentanoylamino)-3-[(oxycodone-enyloxycarbonyl)-methyl-amino]-propionyl}-methyl-amino)-acetic acid]
oxycodone plasma profile compared to administration of oxycodone [18]: yields oxycodone plasma concentrations that exhibit a suppressed Cmax and AUC and delayed Tmax compared to administration of oxycodone | Plasma/CSF partitioning coefficient [19]: 815 | Rate of oxycodone formation, umol/h/BAEE U Average ± sd ([14]; 241 BAEE U trypsin/mL): 0.0118 ± 0.0042 umol/h/BAEE U | Rate of oxycodone formation, umol/h/BAEE U Average ± sd ([14]; 4815 BAEE U trypsin/mL): 0.00571 ± 0.0002 umol/h/BAEE U

From patent US20110262359A1, “COMPOSITIONS COMPRISING ENZYME-CLEAVABLE PRODRUGS OF ACTIVE AGENTS AND INHIBITORS THEREOF” (priority 2010, published 2011)
